# Measurements taken from ChEMBL document CHEMBL1201862, “PubChem BioAssay data set” (2004).
# Calls of active or inactive are those of the source.
# Experiments:
# BJ [1] = assay: cells; format: functional, cell-based; conditions: Homo sapiens
# [2] = DRD fibroblast viability loss – cell-based, non-viral oncogenic, luminescence, dose response (AID 1934); format: functional; conditions: Homo sapiens
# Insulin-degrading enzyme [3] = target: T1, Insulin-degrading enzyme (Homo sapiens, UniProt P14735); assay: cellular IDE activation of Abeta substrate cleavage – fluorescence polarization, HEK cells, dose response (AID 588439); format: functional, cell-based
# T1 sequence (P14735 whole entry): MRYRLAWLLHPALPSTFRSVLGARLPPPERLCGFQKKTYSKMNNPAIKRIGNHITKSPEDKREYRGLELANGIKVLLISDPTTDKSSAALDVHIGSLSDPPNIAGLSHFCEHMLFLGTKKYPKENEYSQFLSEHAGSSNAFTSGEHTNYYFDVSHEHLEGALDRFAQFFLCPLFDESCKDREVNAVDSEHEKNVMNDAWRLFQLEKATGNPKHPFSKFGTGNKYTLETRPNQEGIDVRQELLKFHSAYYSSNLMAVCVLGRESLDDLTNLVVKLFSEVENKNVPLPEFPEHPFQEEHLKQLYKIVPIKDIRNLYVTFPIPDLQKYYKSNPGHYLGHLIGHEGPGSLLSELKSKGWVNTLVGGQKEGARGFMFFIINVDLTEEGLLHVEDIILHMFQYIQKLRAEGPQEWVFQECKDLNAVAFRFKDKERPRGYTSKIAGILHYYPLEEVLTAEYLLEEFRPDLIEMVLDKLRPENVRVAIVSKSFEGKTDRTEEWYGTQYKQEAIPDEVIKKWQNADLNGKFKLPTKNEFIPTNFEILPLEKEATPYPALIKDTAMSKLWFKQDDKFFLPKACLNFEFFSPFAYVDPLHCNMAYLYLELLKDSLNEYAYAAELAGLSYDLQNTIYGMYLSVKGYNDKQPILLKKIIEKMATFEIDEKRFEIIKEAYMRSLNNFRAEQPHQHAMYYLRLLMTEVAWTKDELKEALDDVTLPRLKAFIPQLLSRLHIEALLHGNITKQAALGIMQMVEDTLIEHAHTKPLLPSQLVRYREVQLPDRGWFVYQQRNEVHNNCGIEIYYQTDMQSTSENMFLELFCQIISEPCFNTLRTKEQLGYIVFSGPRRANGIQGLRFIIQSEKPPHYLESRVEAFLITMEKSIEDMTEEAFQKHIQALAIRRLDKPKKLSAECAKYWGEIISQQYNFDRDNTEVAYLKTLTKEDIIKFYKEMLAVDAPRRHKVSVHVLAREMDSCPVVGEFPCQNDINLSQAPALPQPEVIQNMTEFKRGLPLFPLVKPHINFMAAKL
# [4] = bead-based luminescence quenchers, dual-tagged ARNT – biochemical, AlphaScreen, cherry-pick, artefact control for ARNT-TACC3 interaction inhibitor project, dose response (AID 651705); format: functional;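 note: AlphaScreen bead proximity signal that flags compounds interfering with the detection technology; potency reflects signal decrease which marks the compound as an assay artifact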
# Insulin-degrading enzyme [5] = target: T1, Insulin-degrading enzyme; assay: recombinant IDE activation, cell-free – biochemical, fluorescence polarization, counter-screen for IDE activator project, dose response (AID 588681)
# HEK293 [6] = assay: membrane integrity loss in HEK cells – cell-based, fluorescence, cytotoxicity control for IDE activator project, dose response (AID 588440); format: functional; conditions: Homo sapiens;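 note: cytotoxicity by LDH release measuring loss of membrane integrity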
# BJ [7] = assay: BJ-TERT-LT-ST fibroblast viability loss – cell-based, RAS-independent, luminescence, dose response (AID 1935); format: functional; conditions: Homo sapiens;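 note: BJ fibroblasts immortalized with TERT plus LT and ST oncogenes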
# BJ [8] = assay: BJ-TERT fibroblast viability loss – cell-based, RAS-independent, luminescence, dose response (AID 1933); format: functional; conditions: Homo sapiens
# HEK293 [9] = assay: optical interference in Abeta FP readout, dose response, artefact control for IDE activator project, biochemical, fluorescence polarization (AID 588442); format: functional, cell-based; conditions: Homo sapiens
# [10] = target: T2, Endoribonuclease toxin MazF (Escherichia coli K-12, UniProt P0AE70); assay: MazEF toxin-antitoxin RNase activation – biochemical, fluorescence, single-stranded RNA substrate, SAR follow-up (AID 588603); format: functional
# T2 sequence (P0AE70 whole entry): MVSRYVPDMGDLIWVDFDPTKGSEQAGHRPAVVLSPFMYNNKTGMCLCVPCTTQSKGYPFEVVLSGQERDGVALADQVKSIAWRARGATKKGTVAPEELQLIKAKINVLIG
# MEF = assay: SAR analysis of small molecule cytotoxicity of MazEF TA System activators in embryonic fibroblast (MEF) cells. [Related pubchem assays (depositor defined):AID504720, AID504743]; format: functional; conditions: Mus musculus
# [11] = target: T2, Endoribonuclease toxin MazF; assay: activation of MazEF endoribonuclease cleavage – biochemical, fluorescence, single-stranded RNA substrate, uHTS hits, dose response (AID 588481); format: functional
# [12] = target: T3, Zinc finger protein mex-5 (Caenorhabditis elegans, UniProt Q9XUB2); assay: potency of MEX-5 RNA-binding blockers – biochemical, C. elegans, fluorescence polarization, dose response (AID 1960)
# T3 sequence (Q9XUB2 whole entry): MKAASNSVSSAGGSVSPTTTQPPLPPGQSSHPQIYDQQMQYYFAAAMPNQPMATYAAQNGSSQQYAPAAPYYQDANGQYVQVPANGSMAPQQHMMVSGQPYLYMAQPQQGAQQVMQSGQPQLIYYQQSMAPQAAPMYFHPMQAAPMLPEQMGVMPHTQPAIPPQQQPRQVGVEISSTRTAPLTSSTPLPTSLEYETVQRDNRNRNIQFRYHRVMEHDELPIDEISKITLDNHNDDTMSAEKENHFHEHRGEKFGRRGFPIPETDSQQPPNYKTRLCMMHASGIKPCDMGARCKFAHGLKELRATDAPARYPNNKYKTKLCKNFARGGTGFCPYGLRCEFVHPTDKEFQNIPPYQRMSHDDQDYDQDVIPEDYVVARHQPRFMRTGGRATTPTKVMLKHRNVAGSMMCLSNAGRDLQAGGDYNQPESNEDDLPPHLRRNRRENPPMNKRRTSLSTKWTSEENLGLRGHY
# [13] = target: T4, RNA-binding protein pos-1 (Caenorhabditis elegans, UniProt G5EF15); assay: disruptors of C. elegans POS-1 RNA interaction – biochemical, fluorescence polarization, dose response (AID 1964);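 note: purified POS-1 fused to maltose binding protein made in E. coli; potency of compounds blocking POS-1 binding to fluorescent RNA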
# T4 sequence (G5EF15 whole entry): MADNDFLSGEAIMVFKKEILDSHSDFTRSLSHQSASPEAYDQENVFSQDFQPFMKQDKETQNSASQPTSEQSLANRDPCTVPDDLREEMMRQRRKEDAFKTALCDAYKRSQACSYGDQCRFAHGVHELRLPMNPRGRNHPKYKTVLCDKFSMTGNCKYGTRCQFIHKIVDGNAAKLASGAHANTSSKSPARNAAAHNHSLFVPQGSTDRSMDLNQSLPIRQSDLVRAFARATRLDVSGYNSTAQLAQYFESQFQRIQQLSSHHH
# Genome polyprotein = Genome polyprotein (dengue virus type 2, UniProt P29990); assay: flavivirus cap methylation enzyme inhibition – biochemical, confirmation dose response, primary screen (AID 588689); format: functional
# Chain of Genome polyprotein (P29990 2492-3391 limits assumed): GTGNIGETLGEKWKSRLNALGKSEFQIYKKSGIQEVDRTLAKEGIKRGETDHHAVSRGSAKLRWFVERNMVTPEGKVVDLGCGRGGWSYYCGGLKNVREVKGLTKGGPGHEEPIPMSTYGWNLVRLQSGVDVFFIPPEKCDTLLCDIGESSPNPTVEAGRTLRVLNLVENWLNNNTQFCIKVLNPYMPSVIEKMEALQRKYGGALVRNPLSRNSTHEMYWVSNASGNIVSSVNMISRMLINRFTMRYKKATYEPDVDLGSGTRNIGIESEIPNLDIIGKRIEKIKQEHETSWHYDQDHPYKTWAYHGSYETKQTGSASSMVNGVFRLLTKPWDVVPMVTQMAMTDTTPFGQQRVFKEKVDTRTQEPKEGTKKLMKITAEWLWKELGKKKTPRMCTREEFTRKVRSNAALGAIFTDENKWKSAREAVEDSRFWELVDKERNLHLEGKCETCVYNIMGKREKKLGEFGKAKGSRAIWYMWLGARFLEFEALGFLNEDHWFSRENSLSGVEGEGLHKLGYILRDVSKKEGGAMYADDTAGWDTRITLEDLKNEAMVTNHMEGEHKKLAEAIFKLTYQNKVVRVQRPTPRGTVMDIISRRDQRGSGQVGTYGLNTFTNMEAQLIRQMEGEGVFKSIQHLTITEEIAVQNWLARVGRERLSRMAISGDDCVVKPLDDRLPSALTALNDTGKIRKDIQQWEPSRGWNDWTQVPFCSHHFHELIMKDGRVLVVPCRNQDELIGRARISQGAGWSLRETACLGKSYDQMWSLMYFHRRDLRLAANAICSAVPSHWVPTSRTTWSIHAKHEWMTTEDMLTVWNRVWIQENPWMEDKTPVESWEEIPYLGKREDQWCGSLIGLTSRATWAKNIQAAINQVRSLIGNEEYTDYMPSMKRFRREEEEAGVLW
# [14] = target: T2, Endoribonuclease toxin MazF; assay: substrate-only fluorescence increase artefacts – biochemical, single-stranded RNase substrate, counter-screen for MazEF activator project, dose response (AID 588502); format: functional
# [15] = target: T2, Endoribonuclease toxin MazF; assay: SAR analysis of small molecule activators of the MazEF TA System via a fluorescence-based single-stranded RNase assay counterscreen. [Related pubchem assays (depositor defined):AID504720, AID504743]; format: functional
Structure (SMILES),EC50 (BJ [1]),EC50 [2],EC50 (Insulin-degrading enzyme [3]),AC50 [4],EC50 (Insulin-degrading enzyme [5]),IC50 (HEK293 [6]),EC50 (BJ [7]),EC50 (BJ [8]),EC50 (HEK293 [9]),EC50 [10],CC50 (MEF),EC50 [11],EC50 [12],EC50 [13],IC50 (Genome polyprotein),EC50 [14],EC50 [15]
CCN(CC)c1ccc(/C=N/N=C(N)N)c(O)c1,2.16 µM (active),1.19 µM (active),> 54.7 µM (inactive),115 µM (active),> 54.7 µM (inactive),> 89.2 µM (inactive),1.51 µM (inconclusive),1.47 µM (active),> 54.7 µM (inactive),,,,,,,,
C=CCOc1cccc(C2C(C(=O)c3ccc(C)o3)=C(O)C(=O)N2c2nccs2)c1 (configuration not stated),,,,,,,,,,22.3 µM (inactive),> 99 µM (inactive),11.4 µM (active),851 nM (active),> 300 µM (inconclusive),5.64 µM (active),> 99 µM (inactive),44.5 µM (inactive)
